Measurements taken from ChEMBL document CHEMBL4321815, “Discovery of an Extremely Potent Thiazine-Based β-Secretase Inhibitor with Reduced Cardiovascular and Liver Toxicity at a Low Projected Human Dose” (J Med Chem, 2019).

How the values were obtained:
Cathepsin D = Cathepsin D (Homo sapiens, UniProt P07339); assay: Inhibition of Cathepsin D (unknown origin)
Beta-secretase 2 = target: T1, Beta-secretase 2 (Homo sapiens, UniProt Q9Y5Z0); assay: Inhibition of BACE2 (unknown origin) by HTRF assay
T1 sequence (Q9Y5Z0 whole entry): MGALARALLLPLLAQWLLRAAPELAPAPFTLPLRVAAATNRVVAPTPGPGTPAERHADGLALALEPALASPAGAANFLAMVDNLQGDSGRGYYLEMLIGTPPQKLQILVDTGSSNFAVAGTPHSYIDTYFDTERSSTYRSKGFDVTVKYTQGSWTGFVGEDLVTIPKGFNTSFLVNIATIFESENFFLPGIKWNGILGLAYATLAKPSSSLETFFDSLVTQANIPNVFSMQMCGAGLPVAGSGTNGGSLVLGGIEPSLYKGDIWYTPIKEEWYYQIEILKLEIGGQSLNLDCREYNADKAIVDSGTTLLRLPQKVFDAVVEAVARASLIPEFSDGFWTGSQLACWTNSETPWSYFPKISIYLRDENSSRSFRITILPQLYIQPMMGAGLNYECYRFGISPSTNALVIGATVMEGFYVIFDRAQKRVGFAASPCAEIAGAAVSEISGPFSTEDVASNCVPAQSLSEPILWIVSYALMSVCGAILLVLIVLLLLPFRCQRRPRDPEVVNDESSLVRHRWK

[1] = Metabolic stability in human hepatocytes at 2 uM incubated for 2 hr; format: ADME, cell-based, Hepatocyte; conditions: read-out: Stability
[2] = Metabolic stability in dog hepatocytes at 2 uM incubated for 2 hr; format: ADME, cell-based, Canis lupus familiaris, Hepatocyte; conditions: read-out: Stability
[3] = Metabolic stability in rat hepatocytes at 2 uM incubated for 2 hr; format: ADME, cell-based, Hepatocyte; conditions: read-out: Stability
[4] = Metabolic stability in mouse hepatocytes at 2 uM incubated for 2 hr; format: ADME, cell-based, Hepatocyte; conditions: read-out: Stability
[5] = Metabolic stability in cynomolgus monkey hepatocytes at 2 uM incubated for 2 hr; format: ADME, cell-based, Macaca fascicularis, Hepatocyte; conditions: read-out: Stability
[6] = Fraction unbound in human plasma after 24 hrs by equilibrium dialysis based LC-MS/MS analysis; format: ADME, cell-free
[7] = Fraction unbound in rat plasma after 24 hrs by equilibrium dialysis based LC-MS/MS analysis; format: ADME, cell-free
[8] = Fraction unbound in mouse plasma after 24 hrs by equilibrium dialysis based LC-MS/MS analysis; format: ADME, cell-free
[9] = Fraction unbound in dog plasma after 24 hrs by equilibrium dialysis based LC-MS/MS analysis; format: ADME, cell-free, Canis lupus familiaris
[10] = Fraction unbound in monkey plasma after 24 hrs by equilibrium dialysis based LC-MS/MS analysis; format: ADME, cell-free, Macaca mulatta; conditions: rhesus monkey
[11] = Fraction unbound in mouse brain at 5 uM incubated for 5 hrs by HPLC-MS/MS analysis; format: ADME, tissue-based
[12] = Clearance in Sprague-Dawley rat at 0.5 mg/kg, iv by LC/MS/MS analysis; format: ADME, organism-based; conditions: in vivo
[13] = Cmax in Sprague-Dawley rat at 1 mg/kg, po by LC/MS/MS analysis; format: ADME, organism-based; set-up: dose 1 mg/kg, route oral; conditions: in vivo
[14] = Oral bioavailability in Sprague-Dawley rat at 1 mg/kg by LC/MS/MS analysis; format: ADME, organism-based; conditions: in vivo
[15] = Unbound brain-to-plasma concentration ratio in Sprague-Dawley rat at 0.5 mg/kg, iv after 30 mins by LC-MS/MS analysis; format: ADME, organism-based; conditions: brain and plasma, read-out: K(p,uu,brain)
Mus musculus [16] = assay: In vivo inhibition of BACE1 in po dosed Crl:CD1(ICR) mouse assessed as reduction in amyloidbeta level in brain after 2 to 6 hrs by ELISA; format: functional, organism-based
Mus musculus [17] = assay: In vivo inhibition of BACE1 in Crl:CD1(ICR) mouse assessed as reduction in amyloidbeta level in brain at 3 mg/kg, po after 2 to 6 hrs by ELISA relative to control; format: functional
Mus musculus [18] = assay: In vivo inhibition of BACE1 in Crl:CD1(ICR) mouse assessed as reduction in amyloidbeta level in brain at 1 mg/kg, po after 2 to 6 hrs by ELISA relative to control; format: functional
[19] = Drug level in Crl:CD1(ICR) mouse brain at 1 mg/kg, po after 2 to 6 hrs; format: ADME, organism-based; conditions: in vivo, read-out: Drug uptake
[20] = Free drug level in Crl:CD1(ICR) mouse brain at 1 mg/kg, po after 2 to 6 hrs; format: ADME, organism-based; conditions: in vivo
[21] = Drug level in Crl:CD1(ICR) mouse brain at 3 mg/kg, po at 6 hrs; format: ADME, organism-based; conditions: read-out: Drug uptake
[22] = Free drug level in Crl:CD1(ICR) mouse brain at 3 mg/kg, po at 6 hrs; format: ADME, organism-based; conditions: in vivo
Canis familiaris [23] = assay: In vivo inhibition of BACE1 in po dosed Beagle dog assessed as reduction in amyloidbeta42 level in CSF measured after 4 to 49 hrs; format: functional, organism-based; conditions: Canis lupus familiaris
Canis familiaris [24] = assay: In vivo inhibition of BACE1 in Beagle dog assessed as reduction in amyloidbeta42 level in CSF at 1.25 mg/kg, po administered as single dose measured after 4 to 49 hrs relative to control; format: functional; conditions: Canis lupus familiaris
Canis familiaris [25] = assay: In vivo inhibition of BACE1 in Beagle dog assessed as reduction in amyloidbeta42 level in CSF at 0.08 mg/kg, po administered as single dose measured after 4 to 49 hrs relative to control; format: functional; conditions: Canis lupus familiaris
[26] = Unbound CSF to plasma concentration ratio in Beagle dog at 0.08 to […], po measured up to 49 hrs; format: ADME, organism-based, Canis lupus familiaris; conditions: CSF and plasma
Canis familiaris [27] = assay: In vivo inhibition of BACE1 in po dosed Beagle dog assessed as plasma level causing 50% reduction in amyloidbeta42 level in CSF administered as single dose measured after 4 to 49 hrs; format: functional, organism-based; conditions: Canis lupus familiaris
Canis familiaris [28] = assay: In vivo inhibition of BACE1 in po dosed Beagle dog assessed as plasma level causing 80% reduction in amyloidbeta42 level in CSF administered as single dose measured after 4 to 49 hrs; format: functional, Canis lupus familiaris
[29] = Clearance in mouse at 0.5 mg/kg, iv; format: ADME, organism-based; conditions: in vivo
[30] = Volume of distribution at steady state in mouse at 0.5 mg/kg, iv; format: ADME, organism-based; conditions: in vivo, read-out: Vdss
[31] = Half life in mouse at 0.5 mg/kg, iv; format: ADME, organism-based; conditions: in vivo

Cathepsin D, sequence (P07339 65-162 limits assumed): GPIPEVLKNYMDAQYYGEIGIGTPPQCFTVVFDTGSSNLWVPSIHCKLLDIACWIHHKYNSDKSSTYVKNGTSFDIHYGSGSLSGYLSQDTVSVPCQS
Cathepsin D, sequence (P07339 169-412 limits assumed): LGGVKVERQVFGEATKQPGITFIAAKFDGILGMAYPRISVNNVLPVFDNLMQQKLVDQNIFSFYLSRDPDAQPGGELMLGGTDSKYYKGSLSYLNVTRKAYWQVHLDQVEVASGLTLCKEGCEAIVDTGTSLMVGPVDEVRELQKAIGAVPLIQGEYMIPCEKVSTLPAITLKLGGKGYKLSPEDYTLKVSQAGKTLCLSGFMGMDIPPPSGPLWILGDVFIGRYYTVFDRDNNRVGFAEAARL

In the case of C[C@H]1SC(N)=N[C@](C)(c2cc(NC(=O)c3cnc(OCF)cn3)ccc2F)[C@H]1F, the IC50 (Cathepsin D) is reported as ≥ 100 µM, the IC50 (Beta-secretase 2) is reported as 0.0071 µM and the remaining at 2 h, 2 µM [1] is reported as 89%. It also gave a remaining at 2 h, 2 µM [2] of 90%, a remaining at 2 h, 2 µM [3] of 74% and a remaining at 2 h, 2 µM [4] of 71%. For the same molecule, the remaining at 2 h, 2 µM [5] was 55%, the fraction unbound at 24 h [6] was 0.083 and the fraction unbound at 24 h [7] was 0.12. The fraction unbound at 24 h [8] was 0.15, the fraction unbound at 24 h [9] was 0.078 and the fraction unbound at 24 h [10] was 0.12. It also gave a fraction unbound at 5 h, 5 µM [11] of 0.034, a clearance [12] of 24.8 to 27 mL/min/kg and a Cmax [13] of 38.4 ng/mL. For the same molecule, the bioavailability [14] was 31%, the Kp uu at 0.5 h [15] was 0.95 and the inhibition (Mus musculus [16]) was “Dose-dependent effect”. The inhibition in vivo at 3 mg/kg (Mus musculus [17]) was 90%, the inhibition in vivo at 1 mg/kg (Mus musculus [18]) was 55% and the concentration [19] was 87 nM. For the same molecule, the “Drug uptake(free)” value [20] was 3 nM, the concentration at 6 h [21] was 611 nM and the “Drug uptake(free)” value [22] was 73 nM. For the same molecule, the inhibition (Canis familiaris [23]) was “Dose-dependent effect”, the inhibition in vivo at 1.25 mg/kg (Canis familiaris [24]) was 80% and the inhibition in vivo at 0.08 mg/kg (Canis familiaris [25]) was 50%. It also gave a Kp uu at 49 h [26] of 0.77, an EC50 (Canis familiaris [27]) of 0.021 µM and an EC80 (Canis familiaris [28]) of 0.1 µM. It also gave a clearance [29] of 41 mL/min/kg, a Vd [30] of 7.5 L/kg and a half-life [31] of 3.2 h.
